Laboratory results from US7897401B2, “Control of apoptosis by controlling the propensity of ceramide channel formation” (University of Maryland, College Park, priority 2005, dated 2011).

Key:
[1] = tested on: ceramide channels in liposomes; test: Liposome carboxyfluorescein release (ceramide channel formation in liposomes); type: biochemical; settings: C16-ceramide 80 μg, liposomes 90 μg lipid
Experimental: The polar extract of soybean phospholipids (Avanti Polar Lipids, Alabaster, Ala.) and cholesterol (Sigma Chemical, St. Louis, Mo.) were mixed in a 93:7 molar ratio in chloroform and dried under nitrogen followed by drying in vacuo overnight. This mixture resembles the lipid content of mammalian mitochondrial outer membranes. Five mg of this mixture were dispersed in 1 mL of 39 mM NaCl, 6 mM DPX (Molecular Probes, Eugene, Oreg.), 1.5 mM carboxyfluorescein (Acros Organics, Geel, Belgium) and subjected to four freeze-thaw/sonication cycles. After extrusion through a 0.2 μm filter (Avanti Polar Lipids) for 13 passes it was run through a gel filtration column equilibrated and eluted with 50 mM NaCl, 10 mM HEPES, 1 mM EDTA, pH 7.0. The liposomes were used within 30 h. Twenty-five microliters of liposomes were dispersed into 2.0 mL of the elution buffer and placed into a quartz fluorescence cuvette. The fluorescence was monitored using a Deltascan Spectrofluorometer (Photon Technology Instruments, West Sussex, UK) using excitation at 495 nm and emission at 520 nm. Forty microliters of C16-ceramide (2 mg/mL of isopropanol) were added while stirring. Sphingosine was added from either a 1 mg/mL or a 0.1 mg/mL solution in DMSO.

ceramide channels = test: Screening for influence on ceramide channel formation in liposomes or planar membranes; type: biochemical
From the text: In one embodiment, such methods comprise screening compounds for their ability to influence the formation of ceramide channels in liposomes or planar membranes. […] Such liposomes or planar membranes can be produced using any of a variety of lipids. Preferably, however, the constituents of the liposomes or planar membranes will be selected to mimic those of the MOM, or to have relevance to such membranes (see, Weissig, V. et al. (2006) “LIPOSOMES AND LIPOSOME-LIKE VESICLES FOR DRUG AND DNA DELIVERY TO MITOCHONDRIA,” J. Liposome Res. 16(3):249-264; Torchilin, V. P. (2006) “RECENT APPROACHES TO INTRACELLULAR DELIVERY OF DRUGS AND DNA AND ORGANELLE TARGETING,” Annu. Rev. Biomed. Eng. 8:343-375; Elrick, M. J. et al. (2006) “SPHINGOSINE, A PRODUCT OF CERAMIDE HYDROLYSIS, INFLUENCES THE FORMATION OF CERAMIDE CHANNELS,” Biophys. J. 1; 91(5):1749-1756; Bathori, G. et al. (2006) “CA2+-DEPENDENT CONTROL OF THE PERMEABILITY PROPERTIES OF THE MITOCHONDRIAL OUTER MEMBRANE AND VOLTAGE-DEPENDENT ANION-SELECTIVE CHANNEL (VDAC),” J. Biol. Chem. 281(25):17347-17358; Stiban, J. et al. (2006) “DIHYDROCERAMIDE HINDERS CERAMIDE CHANNEL FORMATION: IMPLICATIONS ON APOPIOSIS,” Apoptosis 11(5):773-780; Stover, T. C. et al. (2005) “SYSTEMIC DELIVERY OF LIPOSOMAL SHORT-CHAIN CERAMIDE LIMITS SOLID TUMOR GROWTH IN MURINE MODELS OF BREAST ADENOCARCINOMA,” Clin. Cancer Res. 11(9):3465-3474).

`CCCCCCCCCCCCC/C=C/[C@@H](O)[C@@H](N)CO` [sphingosine] was tested, and the “effect of pretreatment on C16-ceramide-induced carboxyfluorescein release from liposomes” value [1] was “biphasic enhancement” and the “concentration at which very potent inhibitor of ceramide channels” value (ceramide channels) was 5 µM.
